Measured values as given in PubChem BioAssay (NCI).
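Values below derive from 48-hour exposures of cells grown in 96-well plates, with endpoints linearly interpolated between the two concentrations bracketing the appropriate inhibition level. TGI marks complete inhibition of growth.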

Experiments:
Test in all cases: NCI-60 cell line screen, 48 h
OVCAR-5 ovarian = test system: OVCAR-5 ovarian
HL-60(TB) leukemia = test system: HL-60(TB) leukemia
SF-539 CNS = test system: SF-539 CNS
SK-MEL-5 melanoma = test system: SK-MEL-5 melanoma
NCI-H522 lung = test system: NCI-H522 lung
ACHN renal = test system: ACHN renal
SR leukemia = test system: SR leukemia
KM20L2 colon = test system: KM20L2 colon
U251 CNS = test system: U251 CNS
RXF 393 renal = test system: RXF 393 renal
UACC-62 melanoma = test system: UACC-62 melanoma
SW-620 colon = test system: SW-620 colon
NCI-H460 lung = test system: NCI-H460 lung
A498 renal = test system: A498 renal
SNB-78 CNS = test system: SNB-78 CNS
SK-MEL-28 melanoma = test system: SK-MEL-28 melanoma
UACC-257 melanoma = test system: UACC-257 melanoma
IGROV1 ovarian = test system: IGROV1 ovarian
NCI-H226 lung = test system: NCI-H226 lung
HCC-2998 colon = test system: HCC-2998 colon
XF 498 CNS = test system: XF 498 CNS
UO-31 renal = test system: UO-31 renal
DMS 273 small cell lung = test system: DMS 273 small cell lung
EKVX NSCLC = test system: EKVX NSCLC
HOP-62 NSCLC = test system: HOP-62 NSCLC
LXFL 529 NSCLC = test system: LXFL 529 NSCLC
SK-MEL-2 melanoma = test system: SK-MEL-2 melanoma
M19-MEL melanoma = test system: M19-MEL melanoma
RXF-631 renal = test system: RXF-631 renal
CAKI-1 renal = test system: CAKI-1 renal
CCRF-CEM leukemia = test system: CCRF-CEM leukemia
TK-10 renal = test system: TK-10 renal
LOX IMVI melanoma = test system: LOX IMVI melanoma
NCI-H23 lung = test system: NCI-H23 lung
COLO 205 colon = test system: COLO 205 colon
OVCAR-3 ovarian = test system: OVCAR-3 ovarian
K-562 leukemia = test system: K-562 leukemia
KM12 colon = test system: KM12 colon
MOLT-4 leukemia = test system: MOLT-4 leukemia
HCT-116 colon = test system: HCT-116 colon
A549 NSCLC = test system: A549 NSCLC
SF-268 CNS = test system: SF-268 CNS
M14 melanoma = test system: M14 melanoma
SK-OV-3 ovarian = test system: SK-OV-3 ovarian
786-0 renal = test system: 786-0 renal
DLD-1 colon = test system: DLD-1 colon
OVCAR-4 ovarian = test system: OVCAR-4 ovarian
OVCAR-8 ovarian = test system: OVCAR-8 ovarian
SN12C renal = test system: SN12C renal
SF-295 CNS = test system: SF-295 CNS
SNB-75 CNS = test system: SNB-75 CNS
SNB-19 CNS = test system: SNB-19 CNS
HT29 colon = test system: HT29 colon
MALME-3M melanoma = test system: MALME-3M melanoma
DMS 114 small cell lung = test system: DMS 114 small cell lung
RPMI-8226 leukemia = test system: RPMI-8226 leukemia
HCT-15 colon = test system: HCT-15 colon
HOP-92 NSCLC = test system: HOP-92 NSCLC
HOP-18 NSCLC = test system: HOP-18 NSCLC

COc1ccc(=[O+]C)c2nssc1-2
TGI (OVCAR-5 ovarian): > 100 µM | TGI (HL-60(TB) leukemia): > 100 µM | TGI (SF-539 CNS): 48.7 µM | TGI (SK-MEL-5 melanoma): 35.8 µM | TGI (NCI-H522 lung): > 100 µM | TGI (ACHN renal): > 100 µM | TGI (SR leukemia): > 100 µM | TGI (KM20L2 colon): > 100 µM | TGI (U251 CNS): 79.6 µM | TGI (RXF 393 renal): > 100 µM | TGI (UACC-62 melanoma): 67.7 µM | TGI (SW-620 colon): > 100 µM | TGI (NCI-H460 lung): > 100 µM | TGI (A498 renal): > 100 µM | TGI (SNB-78 CNS): > 100 µM | TGI (SK-MEL-28 melanoma): > 100 µM | TGI (UACC-257 melanoma): 71.5 µM | TGI (IGROV1 ovarian): > 100 µM | TGI (NCI-H226 lung): > 100 µM | TGI (HCC-2998 colon): > 100 µM | TGI (XF 498 CNS): > 100 µM | TGI (UO-31 renal): > 100 µM | TGI (DMS 273 small cell lung): > 100 µM | TGI (EKVX NSCLC): > 100 µM | TGI (HOP-62 NSCLC): > 100 µM | TGI (LXFL 529 NSCLC): > 100 µM | TGI (SK-MEL-2 melanoma): > 100 µM | TGI (M19-MEL melanoma): 40.2 µM | TGI (RXF-631 renal): > 100 µM | TGI (CAKI-1 renal): > 100 µM | TGI (CCRF-CEM leukemia): > 100 µM | TGI (TK-10 renal): > 100 µM | TGI (LOX IMVI melanoma): > 100 µM | TGI (NCI-H23 lung): > 100 µM | TGI (COLO 205 colon): > 100 µM | TGI (OVCAR-3 ovarian): > 100 µM | TGI (K-562 leukemia): > 100 µM | TGI (KM12 colon): > 100 µM | TGI (MOLT-4 leukemia): > 100 µM | TGI (HCT-116 colon): > 100 µM | TGI (A549 NSCLC): > 100 µM | TGI (SF-268 CNS): > 100 µM | TGI (M14 melanoma): > 100 µM | TGI (SK-OV-3 ovarian): > 100 µM | TGI (786-0 renal): > 100 µM | TGI (DLD-1 colon): > 100 µM | TGI (OVCAR-4 ovarian): > 100 µM | TGI (OVCAR-8 ovarian): > 100 µM | TGI (SN12C renal): > 100 µM | TGI (SF-295 CNS): > 100 µM | TGI (SNB-75 CNS): > 100 µM | TGI (SNB-19 CNS): > 100 µM | TGI (HT29 colon): > 100 µM | TGI (MALME-3M melanoma): > 100 µM

O=C(O)C1(c2ccccc2)CCCNCC1 (configuration not stated)
TGI (OVCAR-5 ovarian): > 100 µM | TGI (DMS 114 small cell lung): > 100 µM | TGI (SK-MEL-5 melanoma): > 100 µM | TGI (NCI-H522 lung): > 100 µM | TGI (RPMI-8226 leukemia): > 100 µM | TGI (ACHN renal): > 100 µM | TGI (SR leukemia): > 100 µM | TGI (KM20L2 colon): > 100 µM | TGI (HCT-15 colon): > 100 µM | TGI (U251 CNS): > 100 µM | TGI (RXF 393 renal): > 100 µM | TGI (UACC-62 melanoma): > 100 µM | TGI (SW-620 colon): > 100 µM | TGI (NCI-H460 lung): > 100 µM | TGI (A498 renal): > 100 µM | TGI (SNB-78 CNS): > 100 µM | TGI (SK-MEL-28 melanoma): > 100 µM | TGI (UACC-257 melanoma): > 100 µM | TGI (IGROV1 ovarian): > 100 µM | TGI (NCI-H226 lung): > 100 µM | TGI (HCC-2998 colon): > 100 µM | TGI (UO-31 renal): > 100 µM | TGI (DMS 273 small cell lung): > 100 µM | TGI (EKVX NSCLC): > 100 µM | TGI (HOP-62 NSCLC): > 100 µM | TGI (LXFL 529 NSCLC): > 100 µM | TGI (SK-MEL-2 melanoma): > 100 µM | TGI (M19-MEL melanoma): > 100 µM | TGI (RXF-631 renal): > 100 µM | TGI (CAKI-1 renal): > 100 µM | TGI (CCRF-CEM leukemia): > 100 µM | TGI (TK-10 renal): > 100 µM | TGI (LOX IMVI melanoma): > 100 µM | TGI (NCI-H23 lung): > 100 µM | TGI (COLO 205 colon): > 100 µM | TGI (OVCAR-3 ovarian): > 100 µM | TGI (K-562 leukemia): > 100 µM | TGI (KM12 colon): > 100 µM | TGI (MOLT-4 leukemia): > 100 µM | TGI (HCT-116 colon): > 100 µM | TGI (A549 NSCLC): > 100 µM | TGI (SF-268 CNS): > 100 µM | TGI (HOP-92 NSCLC): > 100 µM | TGI (HOP-18 NSCLC): > 100 µM | TGI (M14 melanoma): > 100 µM | TGI (SK-OV-3 ovarian): > 100 µM | TGI (786-0 renal): > 100 µM | TGI (DLD-1 colon): > 100 µM | TGI (OVCAR-4 ovarian): > 100 µM | TGI (OVCAR-8 ovarian): > 100 µM | TGI (SN12C renal): > 100 µM | TGI (SF-295 CNS): > 100 µM | TGI (SNB-75 CNS): > 100 µM | TGI (SNB-19 CNS): > 100 µM | TGI (HT29 colon): > 100 µM | TGI (MALME-3M melanoma): > 100 µM

COc1ccc2c(c1)[n+]([O-])c(-c1c(Cl)cccc1Cl)c(N)[n+]2[O-]
TGI (OVCAR-5 ovarian): > 100 µM | TGI (DMS 114 small cell lung): > 100 µM | TGI (HL-60(TB) leukemia): > 100 µM | TGI (SK-MEL-5 melanoma): 42.9 µM | TGI (RPMI-8226 leukemia): > 100 µM | TGI (ACHN renal): > 100 µM | TGI (KM20L2 colon): > 100 µM | TGI (HCT-15 colon): > 100 µM | TGI (U251 CNS): > 100 µM | TGI (UACC-62 melanoma): > 100 µM | TGI (SW-620 colon): > 100 µM | TGI (NCI-H460 lung): > 100 µM | TGI (A498 renal): > 100 µM | TGI (SNB-78 CNS): > 100 µM | TGI (SK-MEL-28 melanoma): 84 µM | TGI (UACC-257 melanoma): 61.8 µM | TGI (IGROV1 ovarian): > 100 µM | TGI (NCI-H226 lung): > 100 µM | TGI (HCC-2998 colon): > 100 µM | TGI (XF 498 CNS): > 100 µM | TGI (UO-31 renal): > 100 µM | TGI (DMS 273 small cell lung): > 100 µM | TGI (EKVX NSCLC): > 100 µM | TGI (LXFL 529 NSCLC): > 100 µM | TGI (SK-MEL-2 melanoma): > 100 µM | TGI (M19-MEL melanoma): > 100 µM | TGI (RXF-631 renal): 60.1 µM | TGI (CAKI-1 renal): > 100 µM | TGI (CCRF-CEM leukemia): > 100 µM | TGI (TK-10 renal): > 100 µM | TGI (LOX IMVI melanoma): > 100 µM | TGI (NCI-H23 lung): 63.7 µM | TGI (COLO 205 colon): 71.6 µM | TGI (OVCAR-3 ovarian): > 100 µM | TGI (K-562 leukemia): > 100 µM | TGI (KM12 colon): > 100 µM | TGI (MOLT-4 leukemia): > 100 µM | TGI (A549 NSCLC): > 100 µM | TGI (SF-268 CNS): > 100 µM | TGI (HOP-92 NSCLC): > 100 µM | TGI (M14 melanoma): > 100 µM | TGI (SK-OV-3 ovarian): > 100 µM | TGI (786-0 renal): > 100 µM | TGI (DLD-1 colon): > 100 µM | TGI (OVCAR-4 ovarian): > 100 µM | TGI (OVCAR-8 ovarian): > 100 µM | TGI (SN12C renal): > 100 µM | TGI (SF-295 CNS): > 100 µM | TGI (SNB-75 CNS): > 100 µM | TGI (SNB-19 CNS): > 100 µM | TGI (HT29 colon): > 100 µM | TGI (MALME-3M melanoma): 48.4 µM
